Assay results as given in PubChem BioAssay (NCI).
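96-well plates; 48 h exposure; 5 concentrations. Endpoints by linear interpolation between flanking doses. Not reached: highest tested concentration assigned. At the TGI there is no net growth.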

Legend:
Assay in all cases: NCI-60 cell line screen, 48 h
HL-60(TB) leukemia = system: HL-60(TB) leukemia
KM12 colon = system: KM12 colon
LOX IMVI melanoma = system: LOX IMVI melanoma
SK-MEL-2 melanoma = system: SK-MEL-2 melanoma
OVCAR-4 ovarian = system: OVCAR-4 ovarian
SN12C renal = system: SN12C renal
NCI-H226 lung = system: NCI-H226 lung
HCT-15 colon = system: HCT-15 colon
A549 NSCLC = system: A549 NSCLC
SK-OV-3 ovarian = system: SK-OV-3 ovarian
CAKI-1 renal = system: CAKI-1 renal
MOLT-4 leukemia = system: MOLT-4 leukemia
OVCAR-5 ovarian = system: OVCAR-5 ovarian
SW-620 colon = system: SW-620 colon
HT29 colon = system: HT29 colon
UO-31 renal = system: UO-31 renal
HOP-62 NSCLC = system: HOP-62 NSCLC
SF-268 CNS = system: SF-268 CNS
SF-295 CNS = system: SF-295 CNS
LXFL 529 NSCLC = system: LXFL 529 NSCLC
ACHN renal = system: ACHN renal
HCC-2998 colon = system: HCC-2998 colon
IGROV1 ovarian = system: IGROV1 ovarian
HOP-92 NSCLC = system: HOP-92 NSCLC
NCI-H23 lung = system: NCI-H23 lung
DLD-1 colon = system: DLD-1 colon
COLO 205 colon = system: COLO 205 colon
SNB-75 CNS = system: SNB-75 CNS
UACC-62 melanoma = system: UACC-62 melanoma
SK-MEL-28 melanoma = system: SK-MEL-28 melanoma
DMS 114 small cell lung = system: DMS 114 small cell lung
NCI-H460 lung = system: NCI-H460 lung
EKVX NSCLC = system: EKVX NSCLC
OVCAR-8 ovarian = system: OVCAR-8 ovarian
DMS 273 small cell lung = system: DMS 273 small cell lung
NCI-H522 lung = system: NCI-H522 lung
U251 CNS = system: U251 CNS
UACC-257 melanoma = system: UACC-257 melanoma
KM20L2 colon = system: KM20L2 colon
XF 498 CNS = system: XF 498 CNS
HCT-116 colon = system: HCT-116 colon
SNB-78 CNS = system: SNB-78 CNS
RXF-631 renal = system: RXF-631 renal
K-562 leukemia = system: K-562 leukemia
A498 renal = system: A498 renal
SF-539 CNS = system: SF-539 CNS
M19-MEL melanoma = system: M19-MEL melanoma
CCRF-CEM leukemia = system: CCRF-CEM leukemia
RPMI-8226 leukemia = system: RPMI-8226 leukemia
TK-10 renal = system: TK-10 renal
SNB-19 CNS = system: SNB-19 CNS
SK-MEL-5 melanoma = system: SK-MEL-5 melanoma
RXF 393 renal = system: RXF 393 renal
M14 melanoma = system: M14 melanoma
SR leukemia = system: SR leukemia
HOP-18 NSCLC = system: HOP-18 NSCLC
MALME-3M melanoma = system: MALME-3M melanoma
OVCAR-3 ovarian = system: OVCAR-3 ovarian
786-0 renal = system: 786-0 renal

## COC(=O)C(Cc1cc(OC)c(OC)c(OC)c1)(NC(=O)c1ccccc1)P(=O)(OC)OC (stereo not drawn)
HL-60(TB) leukemia
  TGI: > 100 µM
KM12 colon
  TGI: > 100 µM
LOX IMVI melanoma
  TGI: > 100 µM
SK-MEL-2 melanoma
  TGI: > 100 µM
OVCAR-4 ovarian
  TGI: > 100 µM
SN12C renal
  TGI: > 100 µM
NCI-H226 lung
  TGI: > 100 µM
HCT-15 colon
  TGI: > 100 µM
A549 NSCLC
  TGI: > 100 µM
SK-OV-3 ovarian
  TGI: > 100 µM
CAKI-1 renal
  TGI: > 100 µM
MOLT-4 leukemia
  TGI: > 100 µM
OVCAR-5 ovarian
  TGI: > 100 µM
SW-620 colon
  TGI: > 100 µM
HT29 colon
  TGI: > 100 µM
UO-31 renal
  TGI: > 100 µM
HOP-62 NSCLC
  TGI: > 100 µM
SF-268 CNS
  TGI: > 100 µM
SF-295 CNS
  TGI: > 100 µM
LXFL 529 NSCLC
  TGI: > 100 µM
ACHN renal
  TGI: > 100 µM
HCC-2998 colon
  TGI: > 100 µM
IGROV1 ovarian
  TGI: > 100 µM
HOP-92 NSCLC
  TGI: > 100 µM
NCI-H23 lung
  TGI: > 100 µM
DLD-1 colon
  TGI: > 100 µM
COLO 205 colon
  TGI: > 100 µM
SNB-75 CNS
  TGI: > 100 µM
UACC-62 melanoma
  TGI: > 100 µM
SK-MEL-28 melanoma
  TGI: > 100 µM
DMS 114 small cell lung
  TGI: > 100 µM
NCI-H460 lung
  TGI: > 100 µM
EKVX NSCLC
  TGI: > 100 µM
OVCAR-8 ovarian
  TGI: > 100 µM
DMS 273 small cell lung
  TGI: > 100 µM
NCI-H522 lung
  TGI: > 100 µM
U251 CNS
  TGI: > 100 µM
UACC-257 melanoma
  TGI: > 100 µM
KM20L2 colon
  TGI: > 100 µM
XF 498 CNS
  TGI: > 100 µM
HCT-116 colon
  TGI: > 100 µM
SNB-78 CNS
  TGI: > 100 µM
RXF-631 renal
  TGI: > 100 µM
K-562 leukemia
  TGI: > 100 µM
A498 renal
  TGI: > 100 µM
SF-539 CNS
  TGI: > 100 µM
M19-MEL melanoma
  TGI: > 100 µM
CCRF-CEM leukemia
  TGI: > 100 µM
RPMI-8226 leukemia
  TGI: > 100 µM
TK-10 renal
  TGI: > 100 µM
SNB-19 CNS
  TGI: > 100 µM
SK-MEL-5 melanoma
  TGI: > 100 µM
RXF 393 renal
  TGI: > 100 µM
M14 melanoma
  TGI: > 100 µM
SR leukemia
  TGI: > 100 µM

## CC(=O)c1ccc(-c2ccc(C(C)=O)s2)s1
HL-60(TB) leukemia
  TGI: > 100 µM
KM12 colon
  TGI: > 100 µM
LOX IMVI melanoma
  TGI: > 100 µM
SK-MEL-2 melanoma
  TGI: > 100 µM
OVCAR-4 ovarian
  TGI: > 100 µM
SN12C renal
  TGI: > 100 µM
NCI-H226 lung
  TGI: > 100 µM
HCT-15 colon
  TGI: > 100 µM
A549 NSCLC
  TGI: > 100 µM
SK-OV-3 ovarian
  TGI: > 100 µM
CAKI-1 renal
  TGI: > 100 µM
MOLT-4 leukemia
  TGI: > 100 µM
OVCAR-5 ovarian
  TGI: > 100 µM
SW-620 colon
  TGI: > 100 µM
HT29 colon
  TGI: > 100 µM
UO-31 renal
  TGI: > 100 µM
HOP-62 NSCLC
  TGI: > 100 µM
SF-295 CNS
  TGI: > 100 µM
LXFL 529 NSCLC
  TGI: > 100 µM
ACHN renal
  TGI: > 100 µM
HCC-2998 colon
  TGI: > 100 µM
HOP-18 NSCLC
  TGI: > 100 µM
IGROV1 ovarian
  TGI: > 100 µM
HOP-92 NSCLC
  TGI: > 100 µM
MALME-3M melanoma
  TGI: > 100 µM
NCI-H23 lung
  TGI: > 100 µM
DLD-1 colon
  TGI: > 100 µM
COLO 205 colon
  TGI: > 100 µM
SNB-75 CNS
  TGI: > 100 µM
UACC-62 melanoma
  TGI: > 100 µM
SK-MEL-28 melanoma
  TGI: 3.24 µM
DMS 114 small cell lung
  TGI: 2.76 µM
NCI-H460 lung
  TGI: > 100 µM
EKVX NSCLC
  TGI: > 100 µM
OVCAR-8 ovarian
  TGI: > 100 µM
DMS 273 small cell lung
  TGI: > 100 µM
NCI-H522 lung
  TGI: > 100 µM
U251 CNS
  TGI: > 100 µM
UACC-257 melanoma
  TGI: > 100 µM
OVCAR-3 ovarian
  TGI: > 100 µM
KM20L2 colon
  TGI: > 100 µM
XF 498 CNS
  TGI: > 100 µM
HCT-116 colon
  TGI: > 100 µM
SNB-78 CNS
  TGI: > 100 µM
RXF-631 renal
  TGI: > 100 µM
K-562 leukemia
  TGI: > 100 µM
A498 renal
  TGI: 4.16 µM
SF-539 CNS
  TGI: > 100 µM
M19-MEL melanoma
  TGI: > 100 µM
CCRF-CEM leukemia
  TGI: > 100 µM
RPMI-8226 leukemia
  TGI: > 100 µM
TK-10 renal
  TGI: > 100 µM
786-0 renal
  TGI: > 100 µM
SNB-19 CNS
  TGI: > 100 µM
SK-MEL-5 melanoma
  TGI: > 100 µM
RXF 393 renal
  TGI: > 100 µM
M14 melanoma
  TGI: > 100 µM
SR leukemia
  TGI: > 100 µM
